Experimental data reported in US20120071475A1, “UREA DERIVATIVES HAVING PI3K-INHIBITING ACTIVITY” (SHIONOGI & CO., LTD., priority 2009, published 2012).

Tests used:
PI3Kγ = PI3Kγ (Homo sapiens, UniProt P48736); assay: PI3Kγ inhibitory activity (PI3-kinase HTRF assay, inhibition ratio); type: biochemical; settings: 0.5 h, compound at 10 μmol/L; read-out: PI3Kg Inhibition Ratio % (10 μM)
Summary of the method: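 Compound at 10 μmol/L preincubated 10 min with PI3Kγ and PIP2 substrate, then reacted with ATP for 30 minutes at room temperature; the compound, substrate and ATP figures as printed (40 μmol/L each) are solution concentrations. HTRF 665/620 nm ratio read after 18 hours. Inhibition ratio calculated against no-compound (100%) and no-enzyme (0%) controls.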

AKT phosphorylation = AKT phosphorylation inhibitory activity in MCP-1 stimulated THP-1 cells (sandwich ELISA); type: cell-based, Human; settings: Homo sapiens, compound at 1 μmol/L, MCP-1 stimulation, read-out: AKT phosphorylation inhibition ratio
Method: (1) The AKT phosphorylation inhibitory activity of a compound was evaluated according to the following procedure. (2) Human monocyte-like cell line THP-1 was washed with RPMI-1640 media, incubated in the presence of 5% CO2 at 37° C. for 3 hours, washed with Hank's balanced salt solution (HBSS), adjusted to a cell concentration of 6.7×10^6/mL, and then used in an experiment. (3) 30 μL of the cell suspension and 60 μL of each compound solution containing 0.2% DMSO/HBSS were mixed and then preincubated at 37° C. for 5 minutes. 30 μL of HBSS containing 1.2 μg/mL of MCP-1 was added thereto and then incubated for 60 seconds at 37° C. (4) 30 μL of a cell lysate (the final concentrations: 20 mmol/L Tris-HCl (pH 7.5), 150 mmol/L NaCl, 1 mmol/L EDTA, 1 mmol/L EDTA, 1% Triton X-100, 2.5 mmol/L sodium pyrophosphate, 1 mmol/L β-glycerophosphate, 1 mmol/L Na3VO4, 1 μg/ml leupeptin, 50 nmol/L APMSF) was added thereto to lyse cells. (5) The amount of AKT phosphorylation in the cell solution was measured by sandwich ELISA method using anti-Phospho-Akt (Ser473) antibody and anti-AKT1 antibody. (6) Anti-Phospho-Akt (Ser473) antibodies or anti-AKT1 antibodies were immobilized onto the solid phase of a micro well plate. The prepared cell lysate was added to the micro well plate, incubated, and then washed with ELISA wash solution. (7) An anti-AKT1 antibody or anti-Phospho-Akt (Ser473) antibody, which forms a counterpart to an antibody immobilized on the solid phase, was added thereto, incubated, washed similarly, and then reacted with an HRP-labeled anti-mouse IgG antibody. (8) After incubating for 30 minutes and then washing similarly, 100 μL of TMB (3,3′,5,5″-tetramethylbenzidine) was added thereto, followed by reacting for 30 minutes. (9) 100 μL of stop solution was added to quench the color reaction, and then the absorbance at 450 nm was measured. (10) The amount of AKT phosphorylation in a sample in the absence of a compound was defined as 100% activity, and the amount of AKT phosphorylation in a sample in the absence of MCP-1 was defined as 0% activity to calculate an inhibition ratio of each compound. The measurement was performed for a 1 μmol/L solution of each compound.

[1] = Metabolic stability test (pooled human liver microsome); type: in vitro ADME; settings: percentage of test compound remained after 30 minutes, pooled human liver microsome 0.5 mg protein/mL, 1 mmol/L NADPH, 37° C., compound 0.5 μM
Summary of the method: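 Pooled human liver microsomes (0.5 mg protein/mL) incubated with compound and 1 mmol/L NADPH at 37° C. in pH 7.4 Tris buffer for 0 or 30 min. Parent quantified by LC/MS/MS after methanol/acetonitrile quench; value is % remaining at 30 min versus 0 min.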

CYP3A4 = biological target: T1, CYP3A4 (Homo sapiens, UniProt P08684); assay: CYP3A4 fluorescence MBI test; type: in vitro ADME; settings: difference in IC50 with 0 or 30 minutes pre-reaction; CYP3A4 expressed in E. coli, substrate 7-BFC
T1 construct: host or cells: E. coli
Method: The CYP3A4 fluorescence MBI test is a test to examine the enhancement of CYP3A4 inhibition of a compound by a metabolic reaction. The test was performed using as an index, a reaction to produce a metabolite 7-hydroxytrifluoromethylcoumarin (HFC) which emits fluorescence, in which CYP3A4 expressed in E. coli was used as an enzyme and 7-benzyloxytrifluoromethylcoumarin (7-BFC) is debenzylated by CYP3A4 enzyme.
The reaction conditions are as follows: substrate: 5.6 μmol/L 7-BFC; pre-reaction time; 0 or 30 minutes; reaction time: 15 minutes; reaction temperature: 25° C. (room temperature); content of CYP3A4 (an enzyme expressed in E. coli): […] at the time of a pre-reaction and […] (when diluted 10 times) at the time of a reaction; the concentrations of a test drug: 0.625, 1.25, 2.5, 5, 10, and 20 μmol/L (6 points).
In a 96-well plate, an enzyme solution and a test drug solution were added as a pre-reaction solution into K-Pi buffer solution (pH 7.4) in the aforementioned ratio. A portion thereof was transferred to another 96-well plate to be diluted ten times with a substrate and a K-Pi buffer solution. A coenzyme, NADPH, was then added to start a reaction, which is the index (this is without a pre-reaction). After reacting for a predetermined time, 4:1 of acetonitrile: 0.5 mol/L Tris (trishydroxyaminomethane) was added to quench the reaction. To the remaining pre-reaction solution, NADPH was added to start a pre-reaction (this is with a pre-reaction). After pre-reacting for a predetermined time, a portion thereof was transferred to another plate to be diluted ten times with a substrate and K-Pi buffer solution, and thereby the index reaction is started. After reacting for a predetermined time, 4:1 of acetonitrile:0.5 mol/L Tris (trishydroxyaminomethane) was added to quench the reaction. For each plate in which the index reaction was carried out, the fluorescence value of a metabolite 7-HFC was measured with a fluorescent plate reader (Ex=420 nm, Em=535 nm).
The case wherein only DMSO (a solvent which dissolved a drug) was added to a reaction system was defined as a control (100%). When a test drug solution was added, the remaining activity (%) at each concentration was calculated, and then IC50 was calculated with a concentration and an inhibition ratio by an inverse estimation using a logistic model. When the difference in IC50 value is 5 μmol/L or more, the compound is shown as (+). When 3 μmol/L or less, the compound is shown as (−).

hERG channel (IKr) = biological target: T2, hERG channel (IKr) (Homo sapiens, UniProt Q12809); assay: hERG test (whole-cell patch-clamp, IKr in HEK293 cells); type: cell-based; settings: human, HEK293 cells expressing hERG channel, pH 7.4, inhibition of maximum tail current (IKr), compound 1 μM
T2 construct: expressed in transfected cells; host or cells: HEK293
Excerpt: For the purpose of risk evaluation of QT interval extension of electrocardiogram, the activity on delayed rectification K^+ current (IKr), which plays an important role in a cardiac ventricle repolarization process, was examined using the HEK293 cell that was made to express human ether-a-go-go related gene (hERG) channel.
Using an automatic patch-clamp system (PatchXpress 7000A, Axon Instruments Inc.), by a whole-cell patch-clamp method, after the cell was maintained at a membrane potential of −80 mV, IKr induced upon applying depolarizing stimulation of +50 mV for 2 seconds and further applying repolarizing stimulation of −50 mV for 2 seconds was recorded. After generated electric current became stable, a test substance dissolved at an intended concentration in extracellular fluid (137 mmol/L NaCl, 4 mmol/L KCl, 1.8 mmol/L CaCl2.2H2O, 1 mmol/L MgCl2.6H2O, 10 mmol/L glucose, 10 mmol/L HEPES (4-(2-hydroxyethyl)-1-piperazineethanesulfonic acid), pH=7.4) was applied to the cell for 10 minutes under room temperature condition. From the obtained IKr, the absolute value of the maximum tail current was measured using analysis software (DataXpress ver. 1, Molecular Devices Corporation) and the value of the electric current in a maintained membrane potential as baseline. Moreover, an inhibition ratio for the maximum tail current prior to the application of the test substance was calculated and then compared with a group of media-application (0.1% dimethylsulfoxide solution) to evaluate influence of the test substance on IKr.

T1 sequence (P08684 whole entry): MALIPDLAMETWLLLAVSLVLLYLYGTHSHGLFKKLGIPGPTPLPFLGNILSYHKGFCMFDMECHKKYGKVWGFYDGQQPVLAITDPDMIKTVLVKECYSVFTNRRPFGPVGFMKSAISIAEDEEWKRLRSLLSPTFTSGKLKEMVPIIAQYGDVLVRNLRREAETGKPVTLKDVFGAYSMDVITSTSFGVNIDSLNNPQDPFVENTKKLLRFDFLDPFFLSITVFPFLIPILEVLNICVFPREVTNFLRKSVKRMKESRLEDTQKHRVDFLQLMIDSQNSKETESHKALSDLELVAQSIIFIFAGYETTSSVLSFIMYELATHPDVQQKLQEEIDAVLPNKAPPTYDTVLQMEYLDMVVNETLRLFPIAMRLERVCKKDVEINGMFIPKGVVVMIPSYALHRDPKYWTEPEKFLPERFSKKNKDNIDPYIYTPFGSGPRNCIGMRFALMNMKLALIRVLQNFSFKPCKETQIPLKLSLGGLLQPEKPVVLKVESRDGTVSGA
T2 sequence (Q12809 whole entry): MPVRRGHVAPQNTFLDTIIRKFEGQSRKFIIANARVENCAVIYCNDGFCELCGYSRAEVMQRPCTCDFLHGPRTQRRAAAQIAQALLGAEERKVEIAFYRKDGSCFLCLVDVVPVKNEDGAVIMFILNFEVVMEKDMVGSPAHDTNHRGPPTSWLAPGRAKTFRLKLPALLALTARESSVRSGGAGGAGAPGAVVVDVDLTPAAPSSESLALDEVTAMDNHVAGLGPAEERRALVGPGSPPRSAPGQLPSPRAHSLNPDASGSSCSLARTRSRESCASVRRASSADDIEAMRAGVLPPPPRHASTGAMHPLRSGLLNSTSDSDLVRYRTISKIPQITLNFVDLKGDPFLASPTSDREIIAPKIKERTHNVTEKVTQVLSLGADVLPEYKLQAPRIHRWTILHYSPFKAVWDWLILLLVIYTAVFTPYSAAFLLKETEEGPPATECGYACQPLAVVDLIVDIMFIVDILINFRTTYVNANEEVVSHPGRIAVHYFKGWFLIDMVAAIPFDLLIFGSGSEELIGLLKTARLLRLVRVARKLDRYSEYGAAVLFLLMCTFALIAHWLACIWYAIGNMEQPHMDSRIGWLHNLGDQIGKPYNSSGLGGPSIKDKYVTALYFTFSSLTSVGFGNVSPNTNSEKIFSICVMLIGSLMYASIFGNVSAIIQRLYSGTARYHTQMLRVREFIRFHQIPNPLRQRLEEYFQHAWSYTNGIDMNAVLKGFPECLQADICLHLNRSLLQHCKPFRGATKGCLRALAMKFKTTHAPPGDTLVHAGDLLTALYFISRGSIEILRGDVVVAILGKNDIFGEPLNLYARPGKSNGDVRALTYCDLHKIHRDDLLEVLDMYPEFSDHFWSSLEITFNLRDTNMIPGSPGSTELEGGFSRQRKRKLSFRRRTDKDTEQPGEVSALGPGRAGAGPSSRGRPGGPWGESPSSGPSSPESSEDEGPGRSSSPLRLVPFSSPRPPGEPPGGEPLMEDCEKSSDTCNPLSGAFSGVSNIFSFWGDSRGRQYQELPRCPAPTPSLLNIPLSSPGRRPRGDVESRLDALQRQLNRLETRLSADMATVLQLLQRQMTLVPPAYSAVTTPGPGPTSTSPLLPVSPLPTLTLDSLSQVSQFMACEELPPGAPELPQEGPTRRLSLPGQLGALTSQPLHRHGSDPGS
Chain of PI3Kγ (P48736 whole entry, species assumed): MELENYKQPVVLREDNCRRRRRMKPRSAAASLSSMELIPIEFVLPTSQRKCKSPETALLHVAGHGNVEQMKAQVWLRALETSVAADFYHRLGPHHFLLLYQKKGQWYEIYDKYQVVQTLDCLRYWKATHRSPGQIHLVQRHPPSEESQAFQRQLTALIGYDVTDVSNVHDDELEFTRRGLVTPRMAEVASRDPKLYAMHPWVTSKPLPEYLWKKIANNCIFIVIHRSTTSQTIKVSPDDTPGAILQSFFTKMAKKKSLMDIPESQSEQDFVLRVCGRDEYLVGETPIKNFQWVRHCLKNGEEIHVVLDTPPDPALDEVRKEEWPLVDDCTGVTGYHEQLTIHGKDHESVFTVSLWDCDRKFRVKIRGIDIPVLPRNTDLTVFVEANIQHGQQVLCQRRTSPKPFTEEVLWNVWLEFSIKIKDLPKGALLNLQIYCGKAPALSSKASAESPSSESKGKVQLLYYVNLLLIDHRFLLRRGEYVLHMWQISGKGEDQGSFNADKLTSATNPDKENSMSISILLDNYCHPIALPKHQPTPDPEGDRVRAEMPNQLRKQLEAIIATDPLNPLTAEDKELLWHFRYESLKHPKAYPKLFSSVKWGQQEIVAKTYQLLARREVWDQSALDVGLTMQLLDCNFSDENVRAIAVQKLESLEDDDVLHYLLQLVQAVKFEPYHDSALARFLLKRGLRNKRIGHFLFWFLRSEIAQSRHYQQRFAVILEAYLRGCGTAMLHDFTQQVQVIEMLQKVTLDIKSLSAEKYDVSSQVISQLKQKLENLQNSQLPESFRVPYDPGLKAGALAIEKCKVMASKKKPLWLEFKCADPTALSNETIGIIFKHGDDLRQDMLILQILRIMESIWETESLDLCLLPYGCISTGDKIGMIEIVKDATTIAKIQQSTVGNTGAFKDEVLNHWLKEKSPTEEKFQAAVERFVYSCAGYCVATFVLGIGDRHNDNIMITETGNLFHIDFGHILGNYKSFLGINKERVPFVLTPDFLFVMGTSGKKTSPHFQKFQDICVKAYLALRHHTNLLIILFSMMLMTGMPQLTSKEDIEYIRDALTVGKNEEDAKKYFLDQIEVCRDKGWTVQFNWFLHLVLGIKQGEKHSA

Compound | inhibition at 10 µM (PI3Kγ) [%] | inhibition at 1 µM (AKT phosphorylation) [%] | hLMS_ox(at 0.5 μM) % [1] [%] | MBI (CYP3A4) | inhibition at 10 min, 1 µM (hERG channel (IKr)) [%]
COc1cc(N2CCc3nc(NC(=O)Nc4ccccc4C(=O)NC4CCCOC4)sc3C2)nc(OC)n1 (centres unmarked) [Compound I-160] | ≥ 95 | ≥ 95 | – | – | –
[2H]C([2H])([2H])[C@@H](CO)NC(=O)c1ccccc1NC(=O)Nc1nc2c(s1)CN(c1cc(OC)nc(OC)n1)CC2 [Compound I-154] | ≥ 95 | ≥ 95 | 98.7 | – | –
COc1cc(N2CCc3nc(NC(=O)Nc4ccccc4C(=O)NC(C)(C)C)sc3C2)nc(OC)n1 [Compound I-7] | 93 | 77.6 | – | – | –
COc1cc(N2CCc3nc(NC(=O)Nc4cnccc4OCCC(C)C)sc3C2)nc(OC)n1 [Compound I-97] | ≥ 95 | 80.4 | – | (−) (When 3 μmol/L or less, the compound is shown as (−)) | –
[2H]C([2H])([2H])C([2H])(NC(=O)c1ccccc1NC(=O)Nc1nc2c(s1)CN(c1cc(OC)nc(OC)n1)CC2)C([2H])([2H])[2H] [Compound I-153] | ≥ 95 | ≥ 95 | 83 | (−) (When 3 μmol/L or less, the compound is shown as (−)) | –
COc1cc(N2CCc3nc(NC(=O)Nc4ccccc4C(=O)NC4CCCCC4O)sc3C2)nc(OC)n1 (centres unmarked) [Compound I-161] | ≥ 95 | 93 | – | – | 6.1
COc1cc(N2CCc3nc(NC(=O)Nc4ccccc4C(=O)NCC(C)O)sc3C2)nc(OC)n1 (centres unmarked) [Compound I-157] | 87 | ≥ 95 | 96.2 | – | 0.4
COc1cc(N2CCc3nc(NC(=O)Nc4ccccc4C(=O)NC4CCOC4)sc3C2)nc(OC)n1 (centres unmarked) [Compound I-135] | ≥ 95 | 89 | 85.8 | – | 1.8
COC(=O)[C@H](CO)NC(=O)c1nn(C)cc1NC(=O)Nc1nc2c(s1)CN(c1cc(OC)nc(OC)n1)CC2 [Compound I-167] | ≥ 95 | ≥ 95 | – | – | –
CC(C)NC(=O)c1ccccc1NC(=O)Nc1nc2c(s1)CN(c1cncc(S(C)(=O)=O)c1)CC2 [Compound I-166] | ≥ 95 | 76 | – | – | 1.8
COc1cc(N2CCc3nc(NC(=O)Nc4ccccc4C(=O)NC(C)C#N)sc3C2)nc(OC)n1 (centres unmarked) [Compound I-159] | 77 | ≥ 95 | 85.6 | – | 3.8
Cc1cc(N2CCc3nc(NC(=O)Nc4ccccc4C(=O)N[C@H](C)CO)sc3C2)nc(Cl)n1 [Compound I-169] | ≥ 95 | 75 | 94.4 | – | 2.7
CC(C)NC(=O)c1nn(C)cc1NC(=O)Nc1nc2c(s1)CN(c1cncc(C#N)c1)CC2 [Compound I-205] | ≥ 95 | 90 | – | – | 0.2
COc1cc(N2CCc3nc(NC(=O)Nc4cn(C)nc4C(=O)NC4CCOC4)sc3C2)nc(OC)n1 (centres unmarked) [Compound I-156] | 80 | ≥ 95 | – | – | 2.7
COc1cc(N2CCc3nc(NC(=O)Nc4ccccc4C(=O)NC4CCCC4O)sc3C2)nc(OC)n1 (centres unmarked) [Compound I-134] | ≥ 95 | 93 | 88.4 | – | 1.7
CS(=O)(=O)c1cncc(N2CCc3nc(NC(=O)Nc4ccccc4C(=O)NCC#N)sc3C2)c1 [Compound I-210] | 91 | 93 | – | (−) (When 3 μmol/L or less, the compound is shown as (−)) | –
COc1cc(N2CCc3nc(NC(=O)Nc4ccccc4C(=O)NC(C)C(F)(F)F)sc3C2)nc(OC)n1 (centres unmarked) [Compound I-136] | ≥ 95 | 84 | – | – | –
COc1cc(N2CCc3nc(NC(=O)Nc4ccccc4C(=O)NN4CCOCC4)sc3C2)nc(OC)n1 [Compound I-193] | 92 | 81 | 91.2 | – | –
